From patent publication US7517874B2 (priority 2007, dated 2009)
Where two headings read alike, the source gives them in different places.

Assays:
[1] = biological target: human CB1 receptor (hCB1) (Homo sapiens, UniProt P21554); test: cell-based; type: cell-based; conditions: for +/− HCB1: agonist or inverse agonist at hCB1
Outline: (§1)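 Agonism or inverse agonism was assessed as change in intracellular cAMP in CHO-K1 cells expressing human CB1 or rat CB2 (genomic DNA, pcDNA3.1).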

rat CB2 receptor (rCB2) = biological target: T1, rat CB2 receptor (rCB2) (Rattus norvegicus, UniProt Q9QZN9); test: cell-based; type: cell-based; conditions: for +/− RCB2: agonist or inverse agonist at rCB2
T1 sequence (Q9QZN9 1-360): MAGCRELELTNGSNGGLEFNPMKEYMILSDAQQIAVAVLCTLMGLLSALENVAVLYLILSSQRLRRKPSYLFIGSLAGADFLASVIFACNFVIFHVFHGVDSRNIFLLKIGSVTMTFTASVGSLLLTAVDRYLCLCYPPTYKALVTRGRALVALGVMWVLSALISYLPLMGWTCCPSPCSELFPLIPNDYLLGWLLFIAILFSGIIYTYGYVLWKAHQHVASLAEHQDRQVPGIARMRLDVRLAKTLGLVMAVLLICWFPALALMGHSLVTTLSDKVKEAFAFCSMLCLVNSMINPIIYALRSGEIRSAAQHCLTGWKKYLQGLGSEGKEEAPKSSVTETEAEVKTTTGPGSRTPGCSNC
Outline: as §1

[2] = groups >100 nM-10 μM and >10 μM, cAMP, CHO-K1 hCB1, read-out: EC50 HCB1
[3] = groups >100 nM-10 μM and >10 μM, cAMP, CHO-K1 rCB2, read-out: EC50 RCB2

Sequence of human CB1 receptor (hCB1) (P21554 whole entry): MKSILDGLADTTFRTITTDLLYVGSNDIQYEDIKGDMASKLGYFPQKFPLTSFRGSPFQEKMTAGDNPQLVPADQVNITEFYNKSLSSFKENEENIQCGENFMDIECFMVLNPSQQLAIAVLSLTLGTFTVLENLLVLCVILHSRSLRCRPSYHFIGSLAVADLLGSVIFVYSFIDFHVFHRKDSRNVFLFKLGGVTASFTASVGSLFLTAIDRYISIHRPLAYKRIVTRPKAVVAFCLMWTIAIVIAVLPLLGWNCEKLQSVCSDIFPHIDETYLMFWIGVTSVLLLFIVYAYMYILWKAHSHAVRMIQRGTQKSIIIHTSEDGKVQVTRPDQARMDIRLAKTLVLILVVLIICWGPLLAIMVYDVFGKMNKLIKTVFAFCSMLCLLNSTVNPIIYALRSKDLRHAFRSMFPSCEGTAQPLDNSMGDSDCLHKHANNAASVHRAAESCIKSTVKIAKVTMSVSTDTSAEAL

SMILES: CNC(=O)[C@@H](NC(=O)c1nc(-c2ccc(F)c(C(=O)N3CCOCC3)c2)n2c1CN(C)CCC2)C(C)(C)C [Compound 389, (S)-N-(3,3-dimethyl-1-(methylamino)-1-oxobutan-2-yl)-3-(4-fluoro-3-(morpholine-4-carbonyl)phenyl)-8-methyl-6,7,8,9-tetrahydro-5H-imidazo[1,5-a][1,4]diazepine-1-carboxamide]
- EC50 [1]: > 10000 nM
- EC50 (rat CB2 receptor (rCB2)): > 10000 nM

SMILES: CNC(=O)[C@@H](NC(=O)c1nc(-c2ccccc2)n2c1CN(c1cncc(Cl)n1)CC2)C(C)(C)C [Compound 300, (S)-7-(6-chloropyrazin-2-yl)-N-(3,3-dimethyl-1-(methylamino)-1-oxobutan-2-yl)-3-phenyl-5,6,7,8-tetrahydroimidazo[1,5-a]pyrazine-1-carboxamide]
- +/− HCB1 [1]: +
- +/− RCB2 (rat CB2 receptor (rCB2)): −

SMILES: CN1CCCn2c(-c3ccc(Cl)cc3F)nc(C(=O)N[C@@H](CC(C)(C)C)C(N)=O)c2C1 [Compound 584, (S)-N-(1-amino-4,4-dimethyl-1-oxopentan-2-yl)-3-(4-chloro-2-fluorophenyl)-8-methyl-6,7,8,9-tetrahydro-5H-imidazo[1,5-a][1,4]diazepine-1-carboxamide]
- +/− HCB1 [1]: +
- +/− RCB2 (rat CB2 receptor (rCB2)): +

SMILES: COC(=O)N1CCn2c(-c3ccccc3)nc(C(=O)N[C@H](C)C3CCCCC3)c2C1 [Compound 185, (R)-methyl 1-(1-cyclohexylethylcarbamoyl)-3-phenyl-5,6-dihydroimidazo[1,5-a]pyrazine-7(8H)-carboxylate]
- EC50 [1]: > 10000 nM
- +/− RCB2 (rat CB2 receptor (rCB2)): −

SMILES: CN1CCCn2c(-c3cc(F)ccc3F)nc(C(=O)N[C@@H](CC(C)(C)C)C(N)=O)c2C1 [Compound 583, (S)-N-(1-amino-4,4-dimethyl-1-oxopentan-2-yl)-3-(2,5-difluorophenyl)-8-methyl-6,7,8,9-tetrahydro-5H-imidazo[1,5-a][1,4]diazepine-1-carboxamide]
- +/− HCB1 [1]: +
- +/− RCB2 (rat CB2 receptor (rCB2)): +

SMILES: CNC(=O)[C@@H](NC(=O)c1nc(/C=C/C2CC2)n2c1CN(C)CCC2)C(C)(C)C [Compound 436, (S,E)-3-(2-cyclopropylvinyl)-N-(3,3-dimethyl-1-(methylamino)-1-oxobutan-2-yl)-8-methyl-6,7,8,9-tetrahydro-5H-imidazo[1,5-a][1,4]diazepine-1-carboxamide]
- +/− HCB1 [1]: +
- +/− RCB2 (rat CB2 receptor (rCB2)): +

SMILES: CNC(=O)[C@@H](NC(=O)c1nc(-c2ccccc2)n2c1CN(S(=O)(=O)c1ccc(Cl)cc1)CC2)C(C)(C)C [Compound 106, (S)-7-(4-chlorophenylsulfonyl)-N-(3,3-dimethyl-1-(methylamino)-1-oxobutan-2-yl)-3-phenyl-5,6,7,8-tetrahydroimidazo[1,5-a]pyrazine-1-carboxamide]
- EC50 [1]: > 10000 nM
- +/− RCB2 (rat CB2 receptor (rCB2)): −

SMILES: CC(C)(C)CNC(=O)c1nc(-c2ccccc2)n2c1CNCC2 [Compound 24, N-neopentyl-3-phenyl-5,6,7,8-tetrahydroimidazo[1,5-a]pyrazine-1-carboxamide]
- EC50 [1, 2]: > 10000 nM
- EC50 (rat CB2 receptor (rCB2); [3]): > 10000 nM

SMILES: CNC(=O)[C@@H](NC(=O)c1nc(-c2ccccc2)n2c1CN(S(=O)(=O)c1ccccc1)CC2)C(C)(C)C [Compound 96, (S)-N-(3,3-dimethyl-1-(methylamino)-1-oxobutan-2-yl)-3-phenyl-7-(phenylsulfonyl)-5,6,7,8-tetrahydroimidazo[1,5-a]pyrazine-1-carboxamide]
- EC50 [1]: > 10000 nM
- +/− RCB2 (rat CB2 receptor (rCB2)): −

SMILES: CC(C)CN1CCn2c(-c3ccccc3)nc(C(=O)N[C@@H](CO)C(C)(C)C)c2C1 [Compound 68, (R)-N-(1-hydroxy-3,3-dimethylbutan-2-yl)-7-isobutyl-3-phenyl-5,6,7,8-tetrahydroimidazo[1,5-a]pyrazine-1-carboxamide]
- EC50 [1]: > 10000 nM
- +/− RCB2 (rat CB2 receptor (rCB2)): −

SMILES: CNC(=O)[C@@H](NC(=O)c1nc(C(C)C(C)C)n2c1CN(C)CCC2)C(C)(C)C (stereo partly drawn) [Compound 507, N-((S)-3,3-dimethyl-1-(methylamino)-1-oxobutan-2-yl)-8-methyl-3-(3-methylbutan-2-yl)-6,7,8,9-tetrahydro-5H-imidazo[1,5-a][1,4]diazepine-1-carboxamide]
- +/− HCB1 [1]: +
- +/− RCB2 (rat CB2 receptor (rCB2)): +

SMILES: CN1CCn2c(-c3ccc(Cl)cc3F)nc(C(=O)N3CCC4(CC3)C(=O)NCN4c3ccccc3)c2C1 [Compound 214, 8-(3-(4-chloro-2-fluorophenyl)-7-methyl-5,6,7,8-tetrahydroimidazo[1,5-a]pyrazine-1-carbonyl)-1-phenyl-1,3,8-triazaspiro[4.5]decan-4-one]
- EC50 [1]: > 10000 nM
- +/− RCB2 (rat CB2 receptor (rCB2)): −

SMILES: CN1CCCn2c(-c3ccc(Cl)cc3F)nc(C(=O)N[C@H](C(=O)N(C)C)C(C)(C)C)c2C1 [Compound 556, (S)-3-(4-chloro-2-fluorophenyl)-N-(1-(dimethylamino)-3,3-dimethyl-1-oxobutan-2-yl)-8-methyl-6,7,8,9-tetrahydro-5H-imidazo[1,5-a][1,4]diazepine-1-carboxamide]
- +/− HCB1 [1]: +
- EC50 (rat CB2 receptor (rCB2)): > 10000 nM

SMILES: CNC(=O)[C@@H](NC(=O)c1nc(CC(C)C)n2c1CN(C)CCC2)C(C)(C)C [Compound 486, (S)-N-(3,3-dimethyl-1-(methylamino)-1-oxobutan-2-yl)-3-isobutyl-8-methyl-6,7,8,9-tetrahydro-5H-imidazo[1,5-a][1,4]diazepine-1-carboxamide]
- EC50 [1]: > 10000 nM
- +/− RCB2 (rat CB2 receptor (rCB2)): +

SMILES: Cc1noc([C@@H](NC(=O)c2nc(-c3ccccc3)n3c2CN(CC(C)C)CC3)C(C)(C)C)n1 [Compound 90, (S)-N-(2,2-dimethyl-1-(3-methyl-1,2,4-oxadiazol-5-yl)propyl)-7-isobutyl-3-phenyl-5,6,7,8-tetrahydroimidazo[1,5-a]pyrazine-1-carboxamide]
- EC50 [1]: > 10000 nM
- +/− RCB2 (rat CB2 receptor (rCB2)): −

SMILES: COC(=O)[C@@H](NC(=O)c1nc(-c2ccccc2)n2c1CN(C)CC2)C(C)(C)C [Compound 86, (S)-methyl 3,3-dimethyl-2-(7-methyl-3-phenyl-5,6,7,8-tetrahydro-imidazo[1,5-a]pyrazine-1-carboxamido)butanoate]
- EC50 [1]: > 10000 nM
- +/− RCB2 (rat CB2 receptor (rCB2)): +

SMILES: C=C(C)c1nc(C(=O)N[C@H](C(=O)NC)C(C)(C)C)c2n1CCCN(C)C2 [Compound 441, (S)-N-(3,3-dimethyl-1-(methylamino)-1-oxobutan-2-yl)-8-methyl-3-(prop-1-en-2-yl)-6,7,8,9-tetrahydro-5H-imidazo[1,5-a][1,4]diazepine-1-carboxamide]
- +/− HCB1 [1]: +
- +/− RCB2 (rat CB2 receptor (rCB2)): +

SMILES: CCS(=O)(=O)N1CCn2c(-c3ccccc3)nc(C(=O)N[C@@H](C)c3ccccc3)c2C1 [Compound 113, (S)-7-(ethylsulfonyl)-3-phenyl-N-(1-phenylethyl)-5,6,7,8-tetrahydroimidazo[1,5-a]pyrazine-1-carboxamide]
- EC50 [1]: > 10000 nM
- +/− RCB2 (rat CB2 receptor (rCB2)): −

SMILES: CC(CO)NC(=O)c1nc(-c2ccccc2)n2c1CN(C)CC2 (stereo not shown) [Compound 231, N-(1-hydroxypropan-2-yl)-7-methyl-3-phenyl-5,6,7,8-tetrahydroimidazo[1,5-a]pyrazine-1-carboxamide]
- EC50 [1, 2]: > 10000 nM
- EC50 (rat CB2 receptor (rCB2); [3]): > 10000 nM

SMILES: CNC(=O)[C@@H](NC(=O)c1nc(-c2ccccc2)n2c1CN(Cc1cccn1C)CC2)C(C)(C)C [Compound 71, (S)-N-(3,3-dimethyl-1-(methylamino)-1-oxobutan-2-yl)-7-((1-methyl-1H-pyrrol-2-yl)methyl)-3-phenyl-5,6,7,8-tetrahydroimidazo[1,5-a]pyrazine-1-carboxamide]
- EC50 [1]: > 10000 nM
- +/− RCB2 (rat CB2 receptor (rCB2)): −

SMILES: CNC(=O)[C@@H](NC(=O)c1nc(-c2csc3ccccc23)n2c1CN(C)CC2)C(C)(C)C [Compound 75, (S)-3-(benzo[b]thiophen-3-yl)-N-(3,3-dimethyl-1-(methylamino)-1-oxobutan-2-yl)-7-methyl-5,6,7,8-tetrahydroimidazo[1,5-a]pyrazine-1-carboxamide]
- EC50 [1]: > 10000 nM
- +/− RCB2 (rat CB2 receptor (rCB2)): +

SMILES: CNC(=O)[C@H](CC(C)C)NC(=O)c1nc(-c2ccc(F)c(F)c2)n2c1CN(C)CCC2 [Compound 535, (S)-3-(3,4-difluorophenyl)-8-methyl-N-(4-methyl-1-(methylamino)-1-oxopentan-2-yl)-6,7,8,9-tetrahydro-5H-imidazo[1,5-a][1,4]diazepine-1-carboxamide]
- EC50 [1]: > 10000 nM
- +/− RCB2 (rat CB2 receptor (rCB2)): +

SMILES: CN1CCn2c(-c3ccccc3)nc(C(=O)N[C@H](c3nc(C(C)(C)C)no3)C(C)(C)C)c2C1 [Compound 283, (S)-N-(1-(3-tert-butyl-1,2,4-oxadiazol-5-yl)-2,2-dimethylpropyl)-7-methyl-3-phenyl-5,6,7,8-tetrahydroimidazo[1,5-a]pyrazine-1-carboxamide]
- EC50 [1]: > 10000 nM
- +/− RCB2 (rat CB2 receptor (rCB2)): −
